Laboratory results reported in ChEMBL document CHEMBL3621073, “Bile acid amphiphiles with tunable head groups as highly selective antitubercular agents” (Medchemcomm, 2014).
≈ marks a conversion by molar mass, not a printed value. Calls of active or inactive are those of the source. No cut-off for these calls is given here.

Columns and labels:
[1] = tested on: Mycobacterium tuberculosis; test: Antimycobacterial activity against Mycobacterium bovis BCG after 14 days by inverted microscopic analysis; format: functional; settings: variant bovis BCG, 336 h
[2] = tested on: Mycobacterium tuberculosis; test: Antimycobacterial activity against Mycobacterium bovis BCG assessed as effect on membrane morphology by atomic force microscopic analysis; format: functional, organism-based; settings: variant bovis BCG
[3] = tested on: Mycobacterium tuberculosis; test: Antimycobacterial activity against Mycobacterium bovis BCG assessed as effect on membrane topology by atomic force microscopic analysis; format: functional, organism-based; settings: variant bovis BCG
[4] = tested on: Mycobacterium tuberculosis; test: Antimycobacterial activity against Mycobacterium bovis BCG after 14 days by inverted microscopic analysis in presence of plasma; format: functional; settings: variant bovis BCG, 336 h
[5] = tested on: Mycobacterium tuberculosis; test: Antimycobacterial activity against Mycobacterium bovis BCG assessed as pore and grove formation by atomic force microscopic analysis; format: functional, organism-based; settings: variant bovis BCG
[6] = tested on: Mycobacterium tuberculosis; test: Antimycobacterial activity against Mycobacterium bovis BCG assessed as rugged membrane surface by atomic force microscopic analysis; format: functional, organism-based; settings: variant bovis BCG

SMILES	MIC99 [1]	also measured
COC(=O)CC[C@@H](C)[C@H]1CC[C@H]2[C@@H]3CC[C@@H]4C[C@H](OC(=O)C[n+]5ccc(N(C)C)cc5)CC[C@]4(C)[C@H]3CC[C@]12C	50 µM	
COC(=O)CC[C@@H](C)[C@H]1CC[C@H]2[C@@H]3[C@H](OC(=O)CN)C[C@@H]4C[C@H](OC(=O)CN)CC[C@]4(C)[C@H]3C[C@H](OC(=O)CN)[C@]12C.Cl.Cl.Cl	18.8 µM	Activity [2]: inactive; Activity [3]: inactive
COC(=O)CC[C@@H](C)[C@H]1CC[C@H]2[C@@H]3CC[C@@H]4C[C@H](OC(=O)C[n+]5ccccc5)CC[C@]4(C)[C@H]3C[C@H](OC(=O)C[n+]3ccccc3)[C@]12C	6.25 µM	
COC(=O)CC[C@@H](C)[C@H]1CC[C@H]2[C@@H]3CC[C@@H]4C[C@H](OC(=O)C[N+]5(C)CCCCC5)CC[C@]4(C)[C@H]3CC[C@]12C	50 µM	
COC(=O)CC[C@@H](C)[C@H]1CC[C@H]2[C@@H]3[C@H](OC(=O)C[N+](C)(C)C)C[C@@H]4C[C@H](OC(=O)C[N+](C)(C)C)CC[C@]4(C)[C@H]3CC[C@]12C	4.68 µM	
COC(=O)CC[C@@H](C)[C@H]1CC[C@H]2[C@@H]3CC[C@@H]4C[C@H](OC(=O)C[N+](C)(C)C)CC[C@]4(C)[C@H]3C[C@H](OC(=O)C[N+](C)(C)C)[C@]12C	25 µM	
C[C@H]1COc2c(N3CCN(C)CC3)c(F)cc3c(=O)c(C(=O)O)cn1c23 [LEVOFLOXACIN]	0.39 µM (≈ 0.141 µg/mL)	
COC(=O)CC[C@@H](C)[C@H]1CC[C@H]2[C@@H]3[C@H](OC(=O)C[n+]4ccc(N(C)C)cc4)C[C@@H]4C[C@H](OC(=O)C[n+]5ccc(N(C)C)cc5)CC[C@]4(C)[C@H]3CC[C@]12C	3.12 µM	
COC(=O)CC[C@@H](C)[C@H]1CC[C@H]2[C@@H]3[C@H](OC(=O)CN)C[C@@H]4C[C@H](OC(=O)CN)CC[C@]4(C)[C@H]3CC[C@]12C	37.5 µM (≈ 19.5 µg/mL)	
COC(=O)CC[C@@H](C)[C@H]1CC[C@H]2[C@@H]3[C@H](OC(=O)C[N+](C)(C)C)C[C@@H]4C[C@H](OC(=O)C[N+](C)(C)C)CC[C@]4(C)[C@H]3C[C@H](OC(=O)C[N+](C)(C)C)[C@]12C.[Cl-].[Cl-].[Cl-]	6.25 µM	
COC(=O)CC[C@@H](C)[C@H]1CC[C@H]2[C@@H]3CC[C@@H]4C[C@H](OC(=O)C[n+]5ccc(N(C)C)cc5)CC[C@]4(C)[C@H]3C[C@H](OC(=O)C[n+]3ccc(N(C)C)cc3)[C@]12C	2.34 µM	
COC(=O)CC[C@@H](C)[C@H]1CC[C@H]2[C@@H]3[C@H](OC(=O)C[N+]4(C)CCCCC4)C[C@@H]4C[C@H](OC(=O)C[N+]5(C)CCCCC5)CC[C@]4(C)[C@H]3CC[C@]12C	6.25 µM	
COC(=O)CC[C@@H](C)[C@H]1CC[C@H]2[C@@H]3CC[C@@H]4C[C@H](OC(=O)C[n+]5ccccc5)CC[C@]4(C)[C@H]3CC[C@]12C	> 50 µM	
COC(=O)CC[C@@H](C)[C@H]1CC[C@H]2[C@@H]3[C@H](OC(=O)C[n+]4ccccc4)C[C@@H]4C[C@H](OC(=O)C[n+]5ccccc5)CC[C@]4(C)[C@H]3C[C@H](OC(=O)C[n+]3ccccc3)[C@]12C.[Cl-].[Cl-].[Cl-]	6.25 µM	
COC(=O)CC[C@@H](C)[C@H]1CC[C@H]2[C@@H]3CC[C@@H]4C[C@H](OC(=O)CN)CC[C@]4(C)[C@H]3C[C@H](OC(=O)CN)[C@]12C	25 µM (≈ 13 µg/mL)	
COC(=O)CC[C@@H](C)[C@H]1CC[C@H]2[C@@H]3[C@H](OC(=O)C[n+]4ccccc4)C[C@@H]4C[C@H](OC(=O)C[n+]5ccccc5)CC[C@]4(C)[C@H]3CC[C@]12C	9.38 µM	
COC(=O)CC[C@@H](C)[C@H]1CC[C@H]2[C@@H]3CC[C@@H]4C[C@H](OC(=O)C[N+](C)(C)C)CC[C@]4(C)[C@H]3CC[C@]12C	50 µM	
NNC(=O)c1ccncc1 [ISONIAZID]	0.78 µM (≈ 0.107 µg/mL)	
COC(=O)CC[C@@H](C)[C@H]1CC[C@H]2[C@@H]3CC[C@@H]4C[C@H](OC(=O)C[N+]5(C)CCCCC5)CC[C@]4(C)[C@H]3C[C@H](OC(=O)C[N+]3(C)CCCCC3)[C@]12C	3.12 µM	
COC(=O)CC[C@@H](C)[C@H]1CC[C@H]2[C@@H]3[C@H](OC(=O)C[n+]4ccc(N(C)C)cc4)C[C@@H]4C[C@H](OC(=O)C[n+]5ccc(N(C)C)cc5)CC[C@]4(C)[C@H]3C[C@H](OC(=O)C[n+]3ccc(N(C)C)cc3)[C@]12C.[Cl-].[Cl-].[Cl-]	3.12 µM	MIC99 [4]: 6.25 µM; Activity [5]: Active; Activity [6]: Active
COC(=O)CC[C@@H](C)[C@H]1CC[C@H]2[C@@H]3CC[C@@H]4C[C@H](OC(=O)CN)CC[C@]4(C)[C@H]3CC[C@]12C	> 50 µM	
COC(=O)CC[C@@H](C)[C@H]1CC[C@H]2[C@@H]3[C@H](OC(=O)C[N+]4(C)CCCCC4)C[C@@H]4C[C@H](OC(=O)C[N+]5(C)CCCCC5)CC[C@]4(C)[C@H]3C[C@H](OC(=O)C[N+]3(C)CCCCC3)[C@]12C.[Cl-].[Cl-].[Cl-]	6.25 µM	
